This note sets out measurements from patent US20250129067A1 (Progentos Therapeutics, Inc., priority 2021, published 2025).

Several values for one entry are separate records, joined by “and”; a condition that tells them apart may be missing. Identical values can stand only once. Like-named read-outs stand apart in the source and are kept apart here.

A word on the IC50: it is the concentration that inhibits the measured activity by half.

For series [1], the system named is GPR17+ cells (newly differentiated oligodendrocytes). Nature of the series: In vivo OPC differentiation, GPR17+ cells in brain. The note with it: for fold induction at 3.3 mg/kg / fold induction at 10 mg/kg / fold induction at 30 mg/kg / fold induction at 3 mg/kg: Mus musculus, po, 24 h, read-out: GPR17 Fold Induction (Over Vehicle); for GPR17 Fold Induction (Over Vehicle): dose not assignable from Table 10, GPR17+ cells in brain, mice.
Experimental: The ability of newly constructed compounds to drive OPC differentiation and myelination in vivo was tested. The ability of these compounds to drive OPC differentiation in vivo was tested using GPR17 as an indicator of newly differentiated oligodendrocytes.
Compounds were delivered PO or IP either QD or BID. Mice were dosed once, transiently, or continuously through the treatment period, which ranged from 1-3 days.
Mice were euthanized by isoflurane exposure and transcardially perfused with 14 mL of PBS (Sigma Cat #P4417-50TAB) followed by 22 mL of 3.2% paraformaldehyde in PBS. The brains were removed and postfixed for a minimum of 24 hours in 20 mL of 3.2% paraformaldehyde.
50-micron floating sections were cut using a Leica VT1200S vibratome. Every 24th section, extending through the antero-posterior extent of the brain, was stained. The selected brain sections were washed three times in PBS for 3 minutes each. The floating sections were incubated in the primary antibodies (see Table 10, below) diluted in blocking solution overnight at room temperature on a shaker. […] The next day, the sections were again washed three times in PBS for 3 minutes each and then incubated in the secondary antibodies diluted in blocking solution for 2 hours at room temperature on a shaker. After incubation, the sections were washed three times in PBS for 3 minutes each and mounted on a slide to be imaged using the Olympus Slide Scanner VS200.
The images were analyzed using a custom protocol developed using Visiopharm software to count GPR17+ cells. Cells were considered GPR17+ if they contained an Olig2 positive nucleus, and intense GPR 17 staining that filled their processes. Statistical analysis was done using one-way ANOVA with multiple comparison in GraphPad Prism software.

The target of series [2] is PDGFRα (Homo sapiens (Human), UniProt P16234). The series is described as follows: PDGFRα kinase enzyme assay (Promega PDGFRα Kinase Enzyme System, ADP-Glo). Conditions: 150 uM ATP. Type of series: biochemical. Summed up:
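Purified PDGFRα protein (20 ng) reacted with test compound per the Promega kinase system protocol. ADP formed was measured by ADP-Glo luminescence against a standard curve, giving IC50.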
For orientation: In ADP-Glo the light output rises with the ADP produced.

Series [3] has as its system Oligodendrocyte progenitor cells (OPCs). The series is described as follows: In vitro OPC differentiation assay, MBP expression (immunocytochemistry). Conditions: 72 hours of treatment; fold change over vehicle.
Experimental: Cortices from postnatal day (P) 1-3 rats were dissected and collected into ice cold Hank's Balanced Salt Solution (HBSS). […] Briefly, the cortical cell suspension was centrifuged and washed with buffer (0.5% BSA in PBS) and labeled with Anti-A2B5 MicroBeads (10 μL beads per 1×10^7 cells) for 15 minutes at 4° C. Following the incubation, cells were washed once with BSA buffer to remove unlabeled beads. A2B^5 positive cells were eluted on the column using the AutoMACS® (Miltenyi, as per manufacturer's protocol using “possel-s” program). Eluted cells were further washed twice with OPC growth media. Cell count was performed using Countess III cell counter (ThermoFisher; AMQAX2000) and cells were plated.
A2B5+ OPCs were plated in poly-d-lysine (PDL) coated T75 flask at a density of ˜3 million cells per flask. […] TrypLE was normalized by adding 10 mL growth media and cells were centrifuged at 1400 rpm for 10 minutes. […] The plates were allowed to sit at room temperature for 15 minutes to ensure proper dispersion of cells in a well. The plates were then transferred to the incubator (37° C.; 5% CO2).
Cells were then incubated for 72 hours at 37° C., 5% CO2 before immunostaining for MBP marker expression.
Following 72 hours of treatment, cells were fixed with 4% paraformaldehyde for 15 minutes then washed three times in DPBS. Prior to staining, cells were blocked for 15 minutes in 10% normal goat serum containing 1% BSA and 0.1% Triton X-100 in DPBS. Primary antibody (MBP @ 1:2000; Abcam AB7349) was applied to cells overnight at 4° C. in incubation solution containing 1% normal goat serum, 1% BSA, and 0.1% Triton X-100 in DPBS.
The number of differentiated MBP+ cells was normalized to the total nuclei count and percent differentiated MBP+ cells were reported.
For series [4] the test system is unchanged. Nature of the series: In vitro OPC differentiation assay, GPR17 expression (immunocytochemistry). The note with it: 72 hours, fold change over vehicle; for GPR17 Fold Induction (Over Vehicle; 3 μM): 3 μM (10× concentration, final 0.3 μM); for GPR17 Fold Induction (Over Vehicle; 5 μM): 5 μM (10× concentration, final 0.5 μM).
[5] abbreviates: 20 ng purified PDGFRα, Poly (Glu4Tyr1) substrate, two hours, 11-point dose response, read-out: IC50 Values on PDGFRα Kinase Inhibition.
Setting [6] is: 11-point dose response, 10,000 nM to 0.169 nM, BLQ = below limit of quantitation, read-out: IC50 Values on PDGFRα Kinase Inhibition, IC50.

Chain of PDGFRα (P16234 24-1089): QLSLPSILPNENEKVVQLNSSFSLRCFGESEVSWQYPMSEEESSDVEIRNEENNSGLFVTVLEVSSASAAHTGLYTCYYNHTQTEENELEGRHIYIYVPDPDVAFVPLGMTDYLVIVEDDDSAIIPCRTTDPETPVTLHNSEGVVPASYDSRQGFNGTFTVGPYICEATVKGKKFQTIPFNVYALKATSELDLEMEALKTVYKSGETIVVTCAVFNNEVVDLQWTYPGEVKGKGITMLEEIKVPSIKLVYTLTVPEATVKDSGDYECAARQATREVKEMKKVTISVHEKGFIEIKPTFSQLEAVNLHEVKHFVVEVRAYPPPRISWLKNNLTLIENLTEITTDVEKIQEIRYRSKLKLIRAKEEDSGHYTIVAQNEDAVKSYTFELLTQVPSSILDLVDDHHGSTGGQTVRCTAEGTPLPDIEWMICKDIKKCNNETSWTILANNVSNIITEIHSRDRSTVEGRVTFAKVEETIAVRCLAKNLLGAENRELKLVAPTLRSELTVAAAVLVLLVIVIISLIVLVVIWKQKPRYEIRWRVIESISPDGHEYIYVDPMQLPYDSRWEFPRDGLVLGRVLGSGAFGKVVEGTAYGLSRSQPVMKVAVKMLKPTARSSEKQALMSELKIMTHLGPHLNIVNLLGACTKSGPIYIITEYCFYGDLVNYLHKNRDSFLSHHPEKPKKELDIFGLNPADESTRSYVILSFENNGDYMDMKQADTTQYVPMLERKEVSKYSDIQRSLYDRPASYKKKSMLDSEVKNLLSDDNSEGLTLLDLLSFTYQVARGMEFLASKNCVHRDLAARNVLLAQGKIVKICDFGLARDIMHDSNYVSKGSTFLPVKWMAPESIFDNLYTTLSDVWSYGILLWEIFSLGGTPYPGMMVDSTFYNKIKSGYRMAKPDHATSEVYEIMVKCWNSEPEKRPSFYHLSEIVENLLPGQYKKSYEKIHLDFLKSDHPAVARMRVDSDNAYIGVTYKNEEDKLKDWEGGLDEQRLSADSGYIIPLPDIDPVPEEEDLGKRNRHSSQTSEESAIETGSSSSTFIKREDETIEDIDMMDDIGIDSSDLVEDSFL

Take `Cn1cc(-c2ccc3c(N4CCN(C(=O)OCC(C)(C)C)CC4)cnn3c2)cn1` [Compound 3, 2,2-dimethylpropyl 4-[6-(1-methyl-1H-pyrazol-4-yl)pyrazolo[1,5-a]pyridin-3-yl]piperazine-1-carboxylate]: the fold induction at 3.3 mg/kg in series [1] was found to be 1.45. Moreover, the IC50 in series [2] (setting [5]) is below 1000 nM. Also, in series [2] (setting [6]), the IC50 amounted to 883 nM. Further, the “MBP Fold Induction (Over vehicle)” value in series [3] is on record as 1.56. Further, in series [4], the “GPR17 Fold Induction (Over Vehicle; 3 μM)” value is reported as 4.12 and the “GPR17 Fold Induction (Over Vehicle; 5 μM)” value was found to be 3.69.
Turning to `Cn1cc(-c2cnc3c(N4CCN(c5ncc(Cc6ccccc6)cn5)CC4)cnn3c2)cn1` [Compound 7, 3-[4-(5-benzylpyrimidin-2-yl)piperazin-1-yl]-6-(1-methyl-1H-pyrazol-4-yl)pyrazolo[1,5-a]pyrimidine], the fold induction at 10 mg/kg in series [1] came to 12.9. The half-inhibitory concentration (IC50) in series [2] (setting [6]) is 2420 nM. Further, the “MBP Fold Induction (Over vehicle)” value in series [3] is 2.1. Further, in series [4], the “GPR17 Fold Induction (Over Vehicle; 3 μM)” value was 7.38; the “GPR17 Fold Induction (Over Vehicle; 5 μM)” value was 4.40 and 4.45.
On to `Cn1cc(-c2ccc3c(N4CCN(C(=O)OC(C)(C)C)CC4)cnn3c2)cn1` [Compound 11, tert-butyl 4-[6-(1-methyl-1H-pyrazol-4-yl)pyrazolo[1,5-a]pyridin-3-yl]piperazine-1-carboxylate], for which, in series [1], the fold induction at 3.3 mg/kg was 2.14 and the fold induction at 10 mg/kg worked out at 9.93. Besides, the IC50 in series [2] (setting [5]) is below 1000 nM. Besides, the IC50 in series [2] (setting [6]) is 326 nM. Moreover, in series [3], the “MBP Fold Induction (Over vehicle)” value was determined as 1.93. In series [4], the “GPR17 Fold Induction (Over Vehicle; 3 μM)” value amounted to 10.21 and the “GPR17 Fold Induction (Over Vehicle; 5 μM)” value is recorded as 4.22.
On to `Cn1cc(-c2ccc3c(N4CCN(C(=O)OCc5ccccc5)CC4)cnn3c2)cn1` [Compound 13, Benzyl 4-[6-(1-methyl-1H-pyrazol-4-yl)pyrazolo[1,5-a]pyridin-3-yl]piperazine-1-carboxylate], for which the fold induction at 3.3 mg/kg in series [1] came out at 1.85. Moreover, the IC50 in series [2] (setting [5]) was below 1000 nM. Also, the IC50 in series [2] (setting [6]) stood at 421 nM. Further, the “MBP Fold Induction (Over vehicle)” value in series [3] is 10.24. In addition, in series [4], the “GPR17 Fold Induction (Over Vehicle; 3 μM)” value is listed as 8.42 and the “GPR17 Fold Induction (Over Vehicle; 5 μM)” value is 4.31.
For `Cn1cc(-c2ccn3c(N4CCN(c5ncc(Cc6ccccc6)cn5)CC4)cnc3c2)cn1` [Compound 23, 3-[4-(5-benzylpyrimidin-2-yl)piperazin-1-yl]-7-(1-methyl-1H-pyrazol-4-yl)imidazo[1,2-a]pyridine], the fold induction at 30 mg/kg in series [1] is 14.8. Also, the IC50 in series [2] (setting [6]) was found to be 424 nM. For the same compound, the “MBP Fold Induction (Over vehicle)” value in series [3] was found to be 2.1. In series [4], the “GPR17 Fold Induction (Over Vehicle; 3 μM)” value is listed as 9.53 and the “GPR17 Fold Induction (Over Vehicle; 5 μM)” value was 3.98.
Regarding `Cn1cc(-c2ccc3c(N4CCN(C(=O)OCCc5ccccc5)CC4)cnn3c2)cn1` [Compound 30, 2-phenylethyl-4-[6-(1-methyl-1H-pyrazol-4-yl)pyrazolo[1,5-a]pyridin-3-yl]piperazine-1-carboxylate], the fold induction at 3.3 mg/kg in series [1] stood at 9.91. Further, the IC50 in series [2] (setting [6]) was determined as 998 nM. Besides, the “MBP Fold Induction (Over vehicle)” value in series [3] was found to be 1.78. Moreover, in series [4], the “GPR17 Fold Induction (Over Vehicle; 3 μM)” value was determined as 6.05 and the “GPR17 Fold Induction (Over Vehicle; 5 μM)” value was determined as 3.25.
As for `Cn1cc(-c2ccc3c(N4CCN(c5ncc(C(C)(N)c6ccc(F)cc6)cn5)CC4)cnn3c2)cn1` (stereo not drawn) [Compound 35, 1-(4-fluorophenyl)-1-(2-{4-[6-(1-methyl-1H-pyrazol-4-yl)pyrazolo[1,5-a]pyridin-3-yl]piperazin-1-yl}pyrimidin-5-yl)ethanamine], in series [1], the fold induction at 3.3 mg/kg amounted to 5.01. Besides, in series [2] (setting [6]), the IC50 came out at 2090 nM. The “MBP Fold Induction (Over vehicle)” value in series [3] was 1.69. For the same compound, in series [4], the “GPR17 Fold Induction (Over Vehicle; 3 μM)” value is given as 7.17 and the “GPR17 Fold Induction (Over Vehicle; 5 μM)” value worked out at 3.57.
As for `Cn1cc(-c2ccc3c(N4CCN(c5ncc(C(C)(O)c6ccc(F)cc6)cn5)CC4)cnn3c2)cn1` (stereo not drawn) [Compound 46, 1-(4-fluorophenyl)-1-(2-{4-[6-(1-methyl-1H-pyrazol-4-yl)pyrazolo[1,5-a]pyridin-3-yl]piperazin-1-yl}pyrimidin-5-yl)ethanol], the “GPR17 Fold Induction (Over Vehicle)” value in series [1] was 11.15 fold. Also, the concentration for half-maximal inhibition (IC50) in series [2] (setting [6]) came to 122 nM. In addition, the “MBP Fold Induction (Over vehicle)” value in series [3] came out at 3.97. Further, the “GPR17 Fold Induction (Over Vehicle; 3 μM)” value in series [4] is 6.86.
In the case of `C[C@@H](OC(=O)N1CCN(c2cnn3cc(-c4cnn(C)c4)ncc23)CC1)c1ccccc1` [Compound 49, (R)-1-phenylethyl 4-(6-(1-methyl-1H-pyrazol-4-yl)pyrazolo[1,5-a]pyrazin-3-yl)piperazine-1-carboxylate], in series [1], the fold induction at 3.3 mg/kg is 1.68. Moreover, in series [2] (setting [6]), the half-inhibitory concentration (IC50) was found to be 59.5 nM. Moreover, the “MBP Fold Induction (Over vehicle)” value in series [3] was found to be 2.45. For the same compound, in series [4], the “GPR17 Fold Induction (Over Vehicle; 3 μM)” value turned out to be 9.99 and the “GPR17 Fold Induction (Over Vehicle; 5 μM)” value came to 4.42.
`Cc1cccc(Cc2cnc(N3CCN(c4cnn5cc(-c6cnn(C)c6)ccc45)CC3)nc2)c1` [Compound 53, 3-{4-[5-(3-methylbenzyl)pyrimidin-2-yl]piperazin-1-yl}-6-(1-methyl-1H-pyrazol-4-yl)pyrazolo[1,5-a]pyridine]: in series [1], the fold induction at 3 mg/kg is 1.22, the fold induction at 30 mg/kg turned out to be 4.64 and the “GPR17 Fold Induction (Over Vehicle)” value is reported as 1.41 fold. Besides, in series [2] (setting [6]), the half-inhibitory concentration (IC50) came to 249 nM. Besides, in series [3], the “MBP Fold Induction (Over vehicle)” value was 1.41. Moreover, the “GPR17 Fold Induction (Over Vehicle; 3 μM)” value in series [4] was determined as 5.60.
For `COc1cccc(Cc2cnc(N3CCN(c4cnn5cc(-c6cnn(C)c6)ccc45)CC3)nc2)c1` [Compound 54, 3-{4-[5-(3-methoxybenzyl)pyrimidin-2-yl]piperazin-1-yl}-6-(1-methyl-1H-pyrazol-4-yl)pyrazolo[1,5-a]pyridine], in series [1], the fold induction at 3 mg/kg was 1.24 and the fold induction at 30 mg/kg came to 3.48. Besides, the IC50 in series [2] (setting [6]) is 630 nM. Further, the “MBP Fold Induction (Over vehicle)” value in series [3] is recorded as 2.14. For the same compound, the “GPR17 Fold Induction (Over Vehicle; 3 μM)” value in series [4] is on record as 6.81.
Consider `OCCn1cc(-c2ccc3c(N4CCN(c5ncc(Cc6ccccc6)cn5)CC4)cnn3c2)cn1` [Compound 55, 2-(4-{3-[4-(5-benzylpyrimidin-2-yl)piperazin-1-yl]pyrazolo[1,5-a]pyridin-6-yl}-1H-pyrazol-1-yl)ethanol], for which the fold induction at 3 mg/kg in series [1] turned out to be 6.43. The IC50 in series [2] (setting [6]) was determined as 120 nM. In series [3], the “MBP Fold Induction (Over vehicle)” value was 5.64. For the same compound, the “GPR17 Fold Induction (Over Vehicle; 3 μM)” value in series [4] turned out to be 8.97.
As for `Cn1cc(-c2ccc3c(N4CCN(c5nc(Cc6ccccc6)co5)CC4)cnn3c2)cn1` [Compound 58, 3-[4-(4-benzyl-1,3-oxazol-2-yl)piperazin-1-yl]-6-(1-methyl-1H-pyrazol-4-yl)pyrazolo[1,5-a]pyridine], the fold induction at 3 mg/kg in series [1] was 5.5. The IC50 in series [2] (setting [6]) stood at 300 nM. Moreover, the “MBP Fold Induction (Over vehicle)” value in series [3] is reported as 3.72. Moreover, the “GPR17 Fold Induction (Over Vehicle; 3 μM)” value in series [4] turned out to be 7.31.
On to `Cn1cc(-c2ccc3c(N4CCN(c5ncc(C(O)c6ccccn6)cn5)CC4)cnn3c2)cn1` (stereo not drawn) [Compound 59, (2-{4-[6-(1-methyl-1H-pyrazol-4-yl)pyrazolo[1,5-a]pyridin-3-yl]piperazin-1-yl}pyrimidin-5-yl) (pyridin-2-yl)methanol], for which the fold induction at 3 mg/kg in series [1] was 10.6. For the same compound, the IC50 in series [2] (setting [6]) turned out to be 168 nM. Besides, the “MBP Fold Induction (Over vehicle)” value in series [3] was 2.56. For the same compound, the “GPR17 Fold Induction (Over Vehicle; 3 μM)” value in series [4] stood at 5.49.
As for `Cn1cc(-c2ccc3c(N4CCN(c5ncc(C(O)C6CCCCC6)cn5)CC4)cnn3c2)cn1` (stereo not drawn) [Compound 61, cyclohexyl(2-{4-[6-(1-methyl-1H-pyrazol-4-yl)pyrazolo[1,5-a]pyridin-3-yl]piperazin-1-yl}pyrimidin-5-yl)methanol], the fold induction at 3 mg/kg in series [1] was 2.36. In series [2] (setting [6]), the IC50 was determined as 5.26 nM. Further, in series [3], the “MBP Fold Induction (Over vehicle)” value is 9.88. Also, in series [4], the “GPR17 Fold Induction (Over Vehicle; 3 μM)” value was 10.09.
On to `Cn1cc(-c2ccc3c(N4CCN(C(=O)O[C@@H](c5ccccc5)C(F)(F)F)CC4)cnn3c2)cn1` [Compound 64, (1S)-2,2,2-trifluoro-1-phenylethyl 4-[6-(1-methyl-1H-pyrazol-4-yl)pyrazolo[1,5-a]pyridin-3-yl]piperazine-1-carboxylate], for which, in series [1], the fold induction at 3 mg/kg was 2.13. Further, the IC50 in series [2] (setting [6]) turned out to be 38.4 nM. For the same compound, in series [3], the “MBP Fold Induction (Over vehicle)” value is listed as 7.73. Besides, the “GPR17 Fold Induction (Over Vehicle; 3 μM)” value in series [4] came out at 6.09.
For `Cn1cc(-c2ccc3c(N4CCN(c5ncc(Cc6ccc(F)cc6)cn5)CC4)cnn3c2)cn1` [Compound 66, 3-{4-[5-(4-fluorobenzyl)pyrimidin-2-yl]piperazin-1-yl}-6-(1-methyl-1H-pyrazol-4-yl)pyrazolo[1,5-a]pyridine] the same measures were 10.4, 693 nM, 26.50 and 5.07.
As to `CC[C@@H](OC(=O)N1CCN(c2cnn3cc(-c4cnn(C)c4)ccc23)CC1)c1ccccc1` [Compound 80, (1R)-1-(Phenyl)propyl 4-[6-(1-methyl-1H-pyrazol-4-yl)pyrazolo[1,5-a]pyridin-3-yl]piperazine-1-carboxylate], the fold induction at 3 mg/kg in series [1] was 1.64. In addition, the half-maximal inhibitory concentration (IC50) in series [2] (setting [6]) turned out to be 328 nM. The “MBP Fold Induction (Over vehicle)” value in series [3] stood at 7.89. Besides, the “GPR17 Fold Induction (Over Vehicle; 3 μM)” value in series [4] was found to be 8.19.
